Measured values taken from the supplement of paper PMC11061612.

Columns and labels:
Assay in all cases: Bliss excess, mean over the matrix (fraction); higher = more synergy
[1] = system: EN (Endometrial Carcinoma)
In short: (§1)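 After 24 hours at 37°C and 5% CO2 in 1536-well plates, cells in DMEM/F12 or RPMI plus 10% FBS received two-drug dose matrices for 72 hours. Viability came from CellTiter-Glo 2.0 luminescence and was scaled as inhibition, anchored at 0 by vehicle wells and at 1 by blank wells. Combination Emax is taken as the second-highest inhibition in the matrix, and Bliss excess as the observed combination effect less EA + EB − EA·EB, with EA and EB the single-agent effects.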

[2] = system: OVCAR-8 (Ovarian Carcinoma)
In short: as §1

NCI-H28 (Mesothelioma) = system: NCI-H28 (Mesothelioma)
In short: as §1

[3] = system: HCC-15 (Squamous Cell Lung Carcinoma)
In short: as §1

[4] = system: HO-1-u-1 (Oral Cavity Carcinoma)
In short: as §1

[5] = system: LoVo (Colorectal Carcinoma)
In short: as §1

[6] = system: SW1116 (Colorectal Carcinoma)
In short: as §1

[7] = system: CAL-54 (Kidney Carcinoma)
In short: as §1

NCI-H2461 (Mesothelioma) = system: NCI-H2461 (Mesothelioma)
In short: as §1

[8] = system: RPMI-6666 (Non-Cancerous)
In short: as §1

Mewo (Melanoma) = system: Mewo (Melanoma)
In short: as §1

[9] = system: SK-OV-3 (Ovarian Carcinoma)
In short: as §1

HMV-II (Melanoma) = system: HMV-II (Melanoma)
In short: as §1

[10] = system: KARPAS-231 (B-Cell Non-Hodgkin's Lymphoma)
In short: as §1

[11] = system: PCI-30 (Head and Neck Carcinoma)
In short: as §1

[12] = system: LB771-HNC (Head and Neck Carcinoma)
In short: as §1

[13] = system: SU-DHL-6 (B-Cell Non-Hodgkin's Lymphoma)
In short: as §1

[14] = system: UMC-11 (Other Solid Carcinomas)
In short: as §1

SH-4 (Melanoma) = system: SH-4 (Melanoma)
In short: as §1

[15] = system: CAL-51 (Breast Carcinoma)
In short: as §1

SMILES | Bliss excess [1] | Bliss excess [2] | Bliss excess (NCI-H28 (Mesothelioma)) | Bliss excess [3] | Bliss excess [4] | Bliss excess [5] | Bliss excess [6] | Bliss excess [7] | Bliss excess (NCI-H2461 (Mesothelioma)) | Bliss excess [8] | Bliss excess (Mewo (Melanoma)) | Bliss excess [9] | Bliss excess (HMV-II (Melanoma)) | Bliss excess [10] | Bliss excess [11] | Bliss excess [12] | Bliss excess [13] | Bliss excess [14] | Bliss excess (SH-4 (Melanoma)) | Bliss excess [15]
CC(=O)Nc1cccc(-n2c(=O)n(C3CC3)c(=O)c3c(Nc4ccc(I)cc4F)n(C)c(=O)c(C)c32)c1 [Trametinib] + Cc1nc(-c2cn3c(n2)-c2ccc(-c4cnn(C(C)(C)C(N)=O)c4)cc2OCC3)n(C(C)C)n1 [Taselisib] (first compound max 1 µM, 7x7, partner max 10 µM) | 0.0161 | 0.121 | 0.0616 | 0.187 | 0.0754 | -0.0092 | 0.139 | 0.0303 | 0.0312 | 0.0351 | 0.0975 | 0.0582 | 0.0405 | -0.0605 | 0.0485 | 0.125 | 0.0238 | 0.0075 | 0.0172 | 0.0242
CC1(C)CCC(CN2CCN(c3ccc(C(=O)NS(=O)(=O)c4ccc(NCC5CCOCC5)c([N+](=O)[O-])c4)c(Oc4cnc5[nH]ccc5c4)c3)CC2)=C(c2ccc(Cl)cc2)C1 [Venetoclax] + CCN(CCO)CCCOc1ccc2c(Nc3cc(CC(=O)Nc4cccc(F)c4)[nH]n3)ncnc2c1 [AZD2811] (first compound max 1 µM, 7x7, partner max 1 µM) | -0.0017 | 0.0431 | -0.0346 | -0.0209 | -0.0297 | -0.0359 | -0.046 | -0.0105 | -0.0587 | 0.189 | -0.0193 | -0.0401 | 0.0208 | -0.0484 | -0.0231 | -0.028 | 0.0684 | -0.0398 | -0.0115 | 0.046
Cc1c2c(nn1C)CSCc1cc(n(C)n1)CSc1cc(c3ccccc3c1)OCCCc1c(C(=O)O)n(C)c3c-2c(Cl)ccc13 [AZD5991] + C1CN(CCC1(C(=O)N[C@@H](CCO)C2=CC=C(C=C2)Cl)N)C3=NC=NC4=C3C=CN4 [Capivasertib] (first compound max 1 µM, 7x7, partner max 3 µM) | -0.0547 | 0 | -0.0315 | 0.0441 | 0.0242 | -0.069 | -0.0238 | 0.0428 | -0.0345 | 0.0216 | -0.0536 | -0.0065 | -0.0307 | -0.0402 | 0.0204 | 0.0612 | -0.0035 | 0.0253 | -0.0029 | 0.0392
CN(CCO)CC[C@H](CSc1ccccc1)Nc1ccc(S(=O)(=O)NC(=O)c2ccc(N3CCC([C@@H](O)c4ccccc4-c4ccc(Cl)cc4)CC3)cc2)cc1S(=O)(=O)C(F)(F)F [AZD4320] + CCN(CCO)CCCOc1ccc2c(Nc3cc(CC(=O)Nc4cccc(F)c4)[nH]n3)ncnc2c1 [AZD2811] (first compound max 1 µM, 7x7, partner max 1 µM) | -0.0073 | 0.028 | -0.0045 | -0.0091 | 0.107 | -0.0278 | -0.0299 | -0.0406 | -0.0195 | 0.17 | 0.0053 | -0.0522 | -0.0357 | 0.0493 | -0.0085 | -0.0227 | 0.0635 | -0.0565 | -0.0236 | 0.0881
COc1cccc(OCCCN)c1-c1cc(Nc2cnc(C#N)cn2)n[nH]1 [Prexasertib] + CCc1c2c(nc3ccc(O)cc13)-c1cc3c(c(=O)n1C2)COC(=O)[C@]3(O)CC [SN-38] (first compound max 1 µM, 7x7, partner max 0.3 µM) | 0.0282 | 0.0373 | -0.074 | 0.0659 | 0.0348 | -0.0727 | 0.076 | -0.115 | -0.114 | -0.0554 | 0.0881 | -0.0344 | -0.0304 | -0.0111 | 0.0215 | 0 | 0.157 | 0.0774 | -0.0831 | -0.0495
CN(CCO)CC[C@H](CSc1ccccc1)Nc1ccc(S(=O)(=O)NC(=O)c2ccc(N3CCC([C@@H](O)c4ccccc4-c4ccc(Cl)cc4)CC3)cc2)cc1S(=O)(=O)C(F)(F)F [AZD4320] + Cc1cc2ncnn2cc1Nc1ncc2c(n1)n(C1CCOCC1)c(=O)n2C [AZD7648] (first compound max 1 µM, 7x7, partner max 10 µM) | -0.01 | -0.049 | -0.055 | -0.0214 | -0.0172 | 0.0195 | -0.0359 | -0.0122 | -0.0484 | 0.0311 | -0.0104 | -0.063 | -0.0718 | 0.036 | -0.057 | -0.0395 | -0.0099 | 0.0377 | -0.0459 | -0.0064
Cc1cc2ncnn2cc1Nc1ncc2c(n1)n(C1CCOCC1)c(=O)n2C [AZD7648] + C[C@@H]1COCCN1C2=NC(=NC(=C2)C3(CC3)[S@](=N)(=O)C)C4=C5C=CNC5=NC=C4 [AZD6738] (first compound max 10 µM, 7x7, partner max 10 µM) | -0.0485 | 0.0012 | 0.081 | 0.0093 | -0.0014 | -0.0058 | 0.0285 | -0.0183 | -0.0188 | -0.0048 | -0.0217 | 0.0411 | 0.0134 | 0.0018 | -0.0101 | 0.0039 | -0.0598 | 0.0002 | -0.0043 | 0.0017
CCN(CCO)CCCOc1ccc2c(Nc3cc(CC(=O)Nc4cccc(F)c4)[nH]n3)ncnc2c1 [AZD2811] + O=C(c1cc(Cc2n[nH]c(=O)c3ccccc23)ccc1F)N1CCN(C(=O)C2CC2)CC1 [Olaparib] (first compound max 1 µM, 7x7, partner max 10 µM) | -0.0657 | 0.0244 | -0.0383 | -0.0123 | 0.0288 | -0.0452 | -0.0008 | -0.0073 | -0.0638 | -0.0615 | -0.0112 | -0.041 | -0.0302 | 0.0091 | -0.031 | 0.0255 | 0.0252 | -0.0715 | -0.0234 | 0.0272
COc1cccc(OCCCN)c1-c1cc(Nc2cnc(C#N)cn2)n[nH]1 [Prexasertib] + C=CCn1c(=O)c2cnc(Nc3ccc(N4CCN(C)CC4)cc3)nc2n1-c1cccc(C(C)(C)O)n1 [AZD1775] (first compound max 1 µM, partner max 1 µM) | 0.0115 | 0.0937 | -0.0145 | 0.0293 | 0.0122 | 0.0269 | 0.0689 | -0.024 | -0.0573 | 0.0119 | 0.0641 | 0.0324 | 0.0779 | 0.0482 | 0.0954 | 0.0424 | 0.25 | 0.0712 | 0.0591 | 0.101
CS(=O)(=O)CCNCc1ccc(-c2ccc3ncnc(Nc4ccc(OCc5cccc(F)c5)c(Cl)c4)c3c2)o1 [Lapatinib] + C[C@@H](Oc1cc(-c2cnn(C3CCNCC3)c2)cnc1N)c1c(Cl)ccc(F)c1Cl [Crizotinib] (first compound max 10 µM, 7x7, partner max 10 µM) | -0.0418 | -0.037 | -0.0342 | -0.0179 | -0.0264 | -0.0217 | -0.0106 | -0.0801 | -0.0523 | -0.0624 | -0.032 | -0.0268 | -0.11 | 0.0324 | -0.0917 | -0.0398 | -0.0299 | -0.0964 | -0.0365 | -0.0029
Cc1cc2ncnn2cc1Nc1ncc2c(n1)n(C1CCOCC1)c(=O)n2C [AZD7648] + CCN(CCO)CCCOc1ccc2c(Nc3cc(CC(=O)Nc4cccc(F)c4)[nH]n3)ncnc2c1 [AZD2811] (first compound max 10 µM, 7x7, partner max 1 µM) | -0.0671 | 0.0473 | 0.0016 | 0.0043 | 0.0258 | -0.0126 | 0.012 | 0.0156 | -0.0105 | 0.036 | 0.0082 | -0.0193 | -0.0368 | -0.0041 | -0.0267 | 0 | 0.0052 | -0.0884 | -0.0059 | 0.076
CC1(C)CCC(CN2CCN(c3ccc(C(=O)NS(=O)(=O)c4ccc(NCC5CCOCC5)c([N+](=O)[O-])c4)c(Oc4cnc5[nH]ccc5c4)c3)CC2)=C(c2ccc(Cl)cc2)C1 [Venetoclax] + C=CCn1c(=O)c2cnc(Nc3ccc(N4CCN(C)CC4)cc3)nc2n1-c1cccc(C(C)(C)O)n1 [AZD1775] (first compound max 1 µM, partner max 1 µM) | 0.0619 | -0.0326 | -0.048 | -0.0355 | -0.0256 | -0.0625 | -0.0214 | -0.0099 | 0.0234 | 0.0917 | -0.0079 | -0.026 | -0.0542 | -0.047 | 0.0974 | 0.0127 | 0.0009 | -0.0679 | 0.0107 | -0.0507
NC1(C(=O)N[C@@H](CCO)c2ccc(Cl)cc2)CCN(c2ncnc3[nH]ccc23)CC1 [Capivasertib] + COc1nnc2ccc(N3CCC(c4ccc(OCCN5CCN(C)C(=O)[C@H]5C)cc4)CC3)nn12 [AZD5153] (first compound max 10 µM, 7x7, partner max 1 µM) | 0.0304 | 0.0505 | -0.062 | 0.009 | 0.0041 | 0.042 | -0.0236 | -0.0039 | -0.0007 | -0.0305 | -0.0532 | -0.0193 | 0.014 | -0.0391 | 0.0406 | 0.0208 | -0.0424 | 0.0063 | -0.0171 | 0.0957
COc1cccc2c1C(=O)c1c(O)c3c(c(O)c1C2=O)C[C@@](O)(C(=O)CO)C[C@@H]3O[C@H]1C[C@H](N)[C@H](O)[C@H](C)O1 [Doxorubicin] + Cc1cc2ncnn2cc1Nc1ncc2c(n1)n(C1CCOCC1)c(=O)n2C [AZD7648] (first compound max 1 µM, 7x7, partner max 10 µM) | 0.0108 | 0.061 | -0.0177 | 0.0127 | 0.0091 | 0.0105 | -0.0046 | 0.0594 | -0.0108 | 0.103 | 0.0082 | -0.0049 | 0.062 | 0.0522 | 0.006 | -0.035 | 0.0697 | 0.07 | 0.024 | 0.121
